Experimental data reported in US11999746B2, “Compounds” (GlaxoSmithKline Intellectual Property Development Limited, priority 2014, dated 2024).
Structures can show the parent of a compound that is named as a salt.

target: T1, recombinant human Lp-PLA2 (Homo sapiens, UniProt Q13093); assay: (1b) hrThioPAF assay, recombinant human Lp-PLA2; format: biochemical; details: Examples 266-412 were tested here, one experiment or average of multiple experiments, read-out: rhLp-PLA2 (pIC50) (converted)
T1 sequence (Q13093 22-441): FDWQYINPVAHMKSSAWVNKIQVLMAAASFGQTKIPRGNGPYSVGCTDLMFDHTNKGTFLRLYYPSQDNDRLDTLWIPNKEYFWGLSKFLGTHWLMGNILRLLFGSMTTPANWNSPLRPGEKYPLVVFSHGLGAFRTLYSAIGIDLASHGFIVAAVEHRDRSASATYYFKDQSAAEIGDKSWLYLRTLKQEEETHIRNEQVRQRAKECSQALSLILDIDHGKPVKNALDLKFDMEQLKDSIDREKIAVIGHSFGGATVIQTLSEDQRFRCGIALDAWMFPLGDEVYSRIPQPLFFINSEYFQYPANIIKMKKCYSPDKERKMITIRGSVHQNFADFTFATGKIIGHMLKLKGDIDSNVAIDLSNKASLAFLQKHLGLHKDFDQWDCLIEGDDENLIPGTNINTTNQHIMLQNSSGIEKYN
Source text: 1-O-Hexadecyl-2-deoxy-2-thio-S-acetyl-sn-glyceryl-3-phosphorylcholine (2-thio-PAF) is a substrate for PAF-hydrolases (PAF-AH) commercially available from Cayman Chemical. Upon cleavage with PAF-AH, the free thiol is released at the sn-2 position and can then react with 7-diethylamino-3-(4′-maleimidylphenyl)-4-methylcoumarin (CPM) a thiol-reactive coumarin. This reaction (Michael addition) results in an increase in fluorescence. Inhibitors of Lp-PLA2 therefore prevent this cleavage and no fluorescent increase is observed.
The Thio-PAF assay was run as an unquenched 20 μL assay. The source plate containing the compounds to be tested was prepared by making 1:3 (by volume) serial dilution of the compounds within DMSO on 384-well microplate. Then, 5 μL of the compounds on compound source plate were transferred into 384 well Greiner 784076 (black) plates using STAR+(Hamilton) liquid dispenser. 10 μL of recombinant human Lp-PLA2 enzyme (20 pM rhLp-PLA2 in assay buffer of 50 mM HEPES, pH 7.4, 150 mM NaCl, 1 mM CHAPS) was added to each well of the plate. 5 μL of substrate comprising 40 μM 2-thio-PAF [from ethanol stock], 40 μM CPM [from a DMSO stock] and 400 μM NEM (N-ethylmaleimide) [made fresh daily in DMSO] in assay buffer (50 mM HEPES, pH 7.4, 150 mM NaCl, 1 mM CHAPS) was added to 384 well Greiner 784076 black plates. Plates were vortexed for 10 sec. The plate was covered to protect it from light and incubated for 20 min at 25° C. The plates were read for fluorescence intensity at ex: 380 nm/em: 485 nm using Envision plate reader (Perkin Elmer). Raw data were transferred to Excel software and pIC50 data, curve and QC analysis was conducted by using XL fit module in Excel.

IC50 [µM]	Structure (SMILES)
≤ 10	COc1ccc(COc2cc3n(c(=O)n2)CC2CNCCN32)cc1C#N (centres unmarked) [Example E278, 2-Methoxy-5-(((9-oxo-2,3,4,9,11,11a-hexahydro-1H-pyrazino[1′,2′:3,4]imidazo [1,2-c]pyrimidin-7-yl)oxy)methyl) benzonitrile]
≤ 10	CS(=O)(=O)N1CCN2c3cc(NCc4ccc(F)c(F)c4)nc(=O)n3CC2C1 (centres unmarked) [Example E309, 7-((3,4-Difluorobenzyl)amino)-2-(methylsulfonyl)-3,4,11,11a-tetrahydro-1H-pyrazino[1′,2′:3,4]imidazo[1,2-c]pyrimidin-9(2H)-one]
≤ 10	CS(=O)(=O)N1CCN2c3cc(NCc4cccc(F)c4F)nc(=O)n3CC2C1 (centres unmarked) [Example E311, 7-((2,3-Difluorobenzyl)amino)-2-(methylsulfonyl)-3,4,11,11a-tetrahydro-1H-pyrazino[1′,2′:3,4]imidazo[1,2-c]pyrimidin-9(2H)-one]
≤ 10	CS(=O)(=O)N1CCN2c3cc(NCc4ccc(F)c(C#N)c4)nc(=O)n3CC2C1 (centres unmarked) [Example E312, 2-Fluoro-5-(((2-(methylsulfonyl)-9-oxo-2,3,4,9,11,11a-hexahydro-1H-pyrazino[1′,2′:3,4]imidazo[1,2-c]pyrimidin-7-yl)amino)methyl)benzonitrile]
≤ 10	CC(=O)N1CCN2c3cc(NCc4ccc(F)c(C#N)c4)nc(=O)n3CC2C1 (centres unmarked) [Example E314, 5-(((2-Acetyl-9-oxo-2,3,4,9,11,11a-hexahydro-1H-pyrazino[1′,2′:3,4]imidazo[1,2-c]pyrimidin-7-yl)amino)methyl)-2-fluorobenzonitrile]
≤ 0.1	N#Cc1cc(COc2cc3n(c(=O)n2)CC2CNCCN32)ccc1OC1CCCC1 (centres unmarked) [Example E317, 2-(Cyclopentyloxy)-5-(((9-oxo-2,3,4,9,11,11a-hexahydro-1H-pyrazino[1,2′:3,4]imidazo[1,2-c]pyrimidin-7-yl)oxy)methyl)benzonitrile]
≤ 10	N#Cc1cc(CNc2cc3n(c(=O)n2)CC2CNCCN32)ccc1F (centres unmarked) [Example E319, 2-Fluoro-5-(((9-oxo-2,3,4,9,11,11a-hexahydro-1H-pyrazino[1′,2′:3,4]imidazo[1,2-c]pyrimidin-7-yl)amino)methyl)benzonitrile hydrochloride]
≤ 10	O=C(O)C(C1CC1)N1CCN2c3cc(OCc4ccc(F)c(F)c4)nc(=O)n3CC2C1 (centres unmarked) [Example E328, 2-Cyclopropyl-2-(7-((3,4-difluorobenzyl)oxy)-9-oxo-3,4,11,11a-tetrahydro-1H-pyrazino[1′,2′:3,4]imidazo[1,2-c]pyrimidin-2(9H)-yl)acetic acid, trifluoroacetic acid Salt]
≤ 10	O=C1CN2c3cc(OCc4cccc(F)c4F)nc(=O)n3CC2CN1 (centres unmarked) [Example E348, 7-((2,3-Difluorobenzyl)oxy)-11,11a-dihydro-1H-pyrazino[1′,2′:3,4]imidazo[1,2-c]pyrimidine-3,9(2H,4H)-dione]
≤ 10	N#Cc1cc(COc2ccc(COc3cc4n(c(=O)n3)CC3CNC(=O)CN43)cc2C#N)ccc1F (centres unmarked) [Example E350, 5-((2-cyano-4-(((3,9-dioxo-2,3,4,9,11,11a-hexahydro-1H-pyrazino[1′,2′:3,4]imidazo[1,2-c]pyrimidin-7-yl)oxy)methyl)phenoxy)methyl)-2-fluorobenzonitrile]
≤ 10	O=C1CN2c3cc(NCc4ccc(F)c(F)c4)nc(=O)n3CC2CN1 (centres unmarked) [Example E353, 7-((3,4-Difluorobenzyl)amino)-11,11a-dihydro-1H-pyrazino[1′,2′:3,4]imidazo[1,2-c]pyrimidine-3,9(2H,4H)-dione]
≤ 10	N#Cc1cc(CNc2cc3n(c(=O)n2)CC2CNC(=O)CN32)ccc1F (centres unmarked) [Example E354, 5-(((3,9-dioxo-2,3,4,9,11,11a-hexahydro-1H-pyrazino[1′,2′:3,4]imidazo[1,2-c]pyrimidin-7-yl)amino)methyl)-2-fluorobenzonitrile, trifluoroacetic acid salt]
≤ 10	O=c1nc(OCc2cccc(F)c2F)cc2n1CC1CSCCN21 (centres unmarked) [Example E361, 7-((2,3-Difluorobenzyl)oxy)-3,4,11,11a-tetrahydropyrimido[6′,1′:2,3]imidazo[5,1-c][1,4] thiazin-9(1H)-one]
≤ 10	O=c1nc(OCc2cccc(F)c2F)cc2n1CC1C[S+]([O-])CCN21 (centres unmarked) [Example E362, 7-((2,3-Difluorobenzyl)oxy)-3,4,11,11a-tetrahydropyrimido[6′,1′:2,3]imidazo[5,1-c][1,4] thiazin-9(1H)-one 2-oxide]
≤ 10	O=c1nc(OCc2cccc(F)c2F)cc2n1CC1CS(=O)(=O)CCN21 (centres unmarked) [Example E363, 7-((2,3-Difluorobenzyl)oxy)-3,4,11,11a-tetrahydropyrimido[6′,1′:2,3]imidazo[5,1-c][1,4] thiazin-9(1H)-one 2,2-dioxide]
≤ 10	N#Cc1cc(COc2ccc(COc3cc4n(c(=O)n3)CC3CSCCN43)cc2C#N)ccc1F (centres unmarked) [Example E365, 5-((2-Cyano-4-(((9-oxo-1,3,4,9,11,11a-hexahydropyrimido[6′,1′:2,3]imidazo[5,1-c][1,4]thiazin-7-yl)oxy)methyl)phenoxy)methyl)-2-fluorobenzonitrile]
≤ 10	O=c1nc(NCc2ccc(F)c(F)c2)cc2n1CC1CSCCN21 (centres unmarked) [Example E374, 7-((3,4-Difluorobenzyl)amino)-3,4,11,11a-tetrahydropyrimido[6′,1′:2,3]imidazo[5,1-c][1,4]thiazin-9(1H)-one]
≤ 10	O=c1nc(NCc2ccc(F)c(F)c2)cc2n1CC1C[S+]([O-])CCN21 (centres unmarked) [Example E375, 7-((3,4-Difluorobenzyl)amino)-3,4,11,11a-tetrahydropyrimido[6′,1′:2,3]imidazo[5,1-c][1,4]thiazin-9(1H)-one 2-oxide]
≤ 10	O=c1nc(NCc2cccc(F)c2F)cc2n1CC1CSCCN21 (centres unmarked) [Example E377, 7-((2,3-Difluorobenzyl)amino)-3,4,11,11a-tetrahydropyrimido[6′,1′:2,3]imidazo[5,1-c][1,4]thiazin-9(1H)-one]
≤ 10	Cc1ccc(Oc2c(F)cc(COc3cc4n(c(=O)n3)C[C@@H]3C[C@H](O)CN43)cc2F)cn1 [Example E385, (7S,8aS)-3-((3,5-Difluoro-4-((6-methylpyridin-3-yl)oxy)benzyl)oxy)-7-hydroxy-7,8,8a,9-tetrahydropyrrolo[1′,2′:3,4]imidazo[1,2-c]pyrimidin-1(6H)-one]
≤ 10	N#Cc1cc(COc2cc3n(c(=O)n2)C[C@H]2C[C@@H](N)CN32)ccc1F [Example E389, 5-((((7R,8aR)-7-Amino-1-oxo-1,6,7,8,8a,9-hexahydropyrrolo[1′,2′:3,4]imidazo[1,2-c]pyrimidin-3-yl)oxy)methyl)-2-fluorobenzonitrile]
≤ 10	Cn1cc(Oc2c(F)cc(COc3cc4n(c(=O)n3)CC3(COC3)N4)cc2F)cn1 [Example E393]

Structure (SMILES)	IC50 [µM]
O=c1nc(OCc2ccc(Cl)c(Br)c2)cc2n1CC1CNCCN21 (centres unmarked) [Example E275, 7-((3-Bromo-4-chlorobenzyl)oxy)-3,4,11,11a-tetrahydro-1H-pyrazino[1′,2′:3,4] imidazo [1,2-c]pyrimidin-9(2H)-one]	≤ 10
O=c1nc(OCc2ccc(F)c(Br)c2)cc2n1CC1CNCCN21 (centres unmarked) [Example E276, 7-((3-Bromo-4-fluorobenzyl)oxy)-3,4,11,11a-tetrahydro-1H-pyrazino[1′,2′:3,4] imidazo [1,2-c]pyrimidin-9(2H)-one]	≤ 10
O=c1nc(OCc2ccc(F)c(Cl)c2)cc2n1CC1CNCCN21 (centres unmarked) [Example E277, 7-((3-Chloro-4-fluorobenzyl)oxy)-3,4,11,11a-tetrahydro-1H-pyrazino[1′,2′:3,4] imidazo [1,2-c]pyrimidin-9(2H)-one]	≤ 10
N#Cc1cc(COc2cc3n(c(=O)n2)CC2CNCCN32)ccc1OC1CCC1 (centres unmarked) [Example E316, 2-Cyclobutoxy-5-(((9-oxo-2,3,4,9,11,11a-hexahydro-1H-pyrazino[1′,2′:3,4]imidazo[1,2-c]pyrimidin-7-yl)oxy)methyl)benzonitrile]	≤ 10
